Experimental data reported in publication PMC11392244, “Characterization of a unique catechol-O-methyltransferase as a molecular drug target in parasitic filarial nematodes” (PLOS Neglected Tropical Diseases, 2024).
Values joined by “and” are separate entries in the source; they are usually repeats but may differ in a detail not shown here. Equal entries are not always repeated.

Tests used:
D. immitis microfilariae = assay: In vitro efficacy against live D. immitis microfilariae (motility, completely immotile %); assay type: cell-based, Dirofilaria immitis
mammalian cells = conditions: read-out: Cytotoxicity IC50, ref Tan et al., [31]; cited from earlier work

Substance: Ivermectin [reference compound]
- Completely Immotile Microfilariae (%) (D. immitis microfilariae; 2.5 µM, 0 h): 0%
- Mean completely Immotile (%) (D. immitis microfilariae; 2.5 µM, 0 h): 0%
- Completely Immotile Microfilariae (%) (D. immitis microfilariae; 2.5 µM, 24 h): 1% and 2%
- Mean completely Immotile (%) (D. immitis microfilariae; 2.5 µM, 24 h): 1.7%
- Completely Immotile Microfilariae (%) (D. immitis microfilariae; 2.5 µM, 48 h): 1.5% and 2.5% and 2%
- Mean completely Immotile (%) (D. immitis microfilariae; 2.5 µM, 48 h): 2.0%
- Completely Immotile Microfilariae (%) (D. immitis microfilariae; 2.5 µM, 72 h): 2% and 2.5% and 3%
- Mean completely Immotile (%) (D. immitis microfilariae; 2.5 µM, 72 h): 2.5%
- Completely Immotile Microfilariae (%) (D. immitis microfilariae; 2.5 µM, 90 h): 3% and 4% and 4.5%
- Mean completely Immotile (%) (D. immitis microfilariae; 2.5 µM, 96 h): 3.8%
- Completely Immotile Microfilariae (%) (D. immitis microfilariae; 2.5 µM, 120 h): 5% and 5.5% and 7%
- Mean completely Immotile (%) (D. immitis microfilariae; 2.5 µM, 120 h): 5.83%
- Mean completely Immotile (%) (D. immitis microfilariae; 5 µM, 0 h): 0%
- Completely Immotile Microfilariae (%) (D. immitis microfilariae; 5.0 µM, 0 h): 0%
- Mean completely Immotile (%) (D. immitis microfilariae; 5 µM, 24 h): 2.3%
- Completely Immotile Microfilariae (%) (D. immitis microfilariae; 5.0 µM, 24 h): 2% and 3%
- Mean completely Immotile (%) (D. immitis microfilariae; 5 µM, 48 h): 3.7%
- Completely Immotile Microfilariae (%) (D. immitis microfilariae; 5.0 µM, 48 h): 3% and 4%
- Mean completely Immotile (%) (D. immitis microfilariae; 5 µM, 72 h): 5.0%
- Completely Immotile Microfilariae (%) (D. immitis microfilariae; 5.0 µM, 72 h): 5% and 4.5% and 5.5%
- Completely Immotile Microfilariae (%) (D. immitis microfilariae; 5.0 µM, 90 h): 7.5% and 7% and 8.5%
- Mean completely Immotile (%) (D. immitis microfilariae; 5 µM, 96 h): 7.7%
- Mean completely Immotile (%) (D. immitis microfilariae; 5 µM, 120 h): 15.0%
- Completely Immotile Microfilariae (%) (D. immitis microfilariae; 5.0 µM, 120 h): 15% and 12.5% and 17.5%
- Completely Immotile Microfilariae (%) (D. immitis microfilariae; 10 µM, 0 h): 0%
- Mean completely Immotile (%) (D. immitis microfilariae; 10 µM, 0 h): 0%
- Completely Immotile Microfilariae (%) (D. immitis microfilariae; 10 µM, 24 h): 3% and 4%
- Mean completely Immotile (%) (D. immitis microfilariae; 10 µM, 24 h): 3.3%
- Completely Immotile Microfilariae (%) (D. immitis microfilariae; 10 µM, 48 h): 5% and 6%
- Mean completely Immotile (%) (D. immitis microfilariae; 10 µM, 48 h): 5.7%
- Completely Immotile Microfilariae (%) (D. immitis microfilariae; 10 µM, 72 h): 7.5% and 8.5%
- Mean completely Immotile (%) (D. immitis microfilariae; 10 µM, 72 h): 7.8%
- Completely Immotile Microfilariae (%) (D. immitis microfilariae; 10.0 µM, 90 h): 25% and 28.5% and 30%
- Mean completely Immotile (%) (D. immitis microfilariae; 10 µM, 96 h): 27.8%
- Completely Immotile Microfilariae (%) (D. immitis microfilariae; 10 µM, 120 h): 50% and 53.5% and 53%
- Mean completely Immotile (%) (D. immitis microfilariae; 10 µM, 120 h): 52.2%
- Mean completely Immotile (%) (D. immitis microfilariae; 15 µM, 0 h): 0%
- Completely Immotile Microfilariae (%) (D. immitis microfilariae; 15.0 µM, 0 h): 0%
- Mean completely Immotile (%) (D. immitis microfilariae; 15 µM, 24 h): 3.8%
- Completely Immotile Microfilariae (%) (D. immitis microfilariae; 15.0 µM, 24 h): 3.5% and 4.5%
- Mean completely Immotile (%) (D. immitis microfilariae; 15 µM, 48 h): 6.2%
- Completely Immotile Microfilariae (%) (D. immitis microfilariae; 15.0 µM, 48 h): 6% and 6.7%
- Mean completely Immotile (%) (D. immitis microfilariae; 15 µM, 72 h): 11.0%
- Completely Immotile Microfilariae (%) (D. immitis microfilariae; 15.0 µM, 72 h): 10% and 12% and 11%
- Completely Immotile Microfilariae (%) (D. immitis microfilariae; 15.0 µM, 90 h): 30% and 37% and 33%
- Mean completely Immotile (%) (D. immitis microfilariae; 15 µM, 96 h): 33.3%
- Mean completely Immotile (%) (D. immitis microfilariae; 15 µM, 120 h): 72.3%
- Completely Immotile Microfilariae (%) (D. immitis microfilariae; 15.0 µM, 120 h): 70% and 75% and 72%
- Mean completely Immotile (%) (D. immitis microfilariae; 20 µM, 0 h): 0%
- Completely Immotile Microfilariae (%) (D. immitis microfilariae; 20.0 µM, 0 h): 0%
- Mean completely Immotile (%) (D. immitis microfilariae; 20 µM, 24 h): 11.2%
- Completely Immotile Microfilariae (%) (D. immitis microfilariae; 20.0 µM, 24 h): 10% and 12.5% and 11%
- Mean completely Immotile (%) (D. immitis microfilariae; 20 µM, 48 h): 15.7%
- Completely Immotile Microfilariae (%) (D. immitis microfilariae; 20.0 µM, 48 h): 15% and 17%
- Mean completely Immotile (%) (D. immitis microfilariae; 20 µM, 72 h): 26.0%
- Completely Immotile Microfilariae (%) (D. immitis microfilariae; 20.0 µM, 72 h): 25% and 30% and 23%
- Completely Immotile Microfilariae (%) (D. immitis microfilariae; 20.0 µM, 90 h): 50% and 65% and 49%
- Mean completely Immotile (%) (D. immitis microfilariae; 20 µM, 96 h): 54.7%
- Mean completely Immotile (%) (D. immitis microfilariae; 20 µM, 120 h): 90.3%
- Completely Immotile Microfilariae (%) (D. immitis microfilariae; 20.0 µM, 120 h): 90% and 94% and 87%
- Mean completely Immotile (%) (D. immitis microfilariae; 30 µM, 0 h): 0%
- Completely Immotile Microfilariae (%) (D. immitis microfilariae; 30.0 µM, 0 h): 0%
- Mean completely Immotile (%) (D. immitis microfilariae; 30 µM, 24 h): 27.7%
- Completely Immotile Microfilariae (%) (D. immitis microfilariae; 30.0 µM, 24 h): 25% and 30% and 28%
- Mean completely Immotile (%) (D. immitis microfilariae; 30 µM, 48 h): 43.0%
- Completely Immotile Microfilariae (%) (D. immitis microfilariae; 30.0 µM, 48 h): 40% and 46% and 43%
- Mean completely Immotile (%) (D. immitis microfilariae; 30 µM, 72 h): 56.0%
- Completely Immotile Microfilariae (%) (D. immitis microfilariae; 30.0 µM, 72 h): 50% and 60% and 58%
- Completely Immotile Microfilariae (%) (D. immitis microfilariae; 30.0 µM, 90 h): 80% and 85% and 88%
- Mean completely Immotile (%) (D. immitis microfilariae; 30 µM, 96 h): 84.3%
- Mean completely Immotile (%) (D. immitis microfilariae; 30 µM, 120 h): 95.3%
- Completely Immotile Microfilariae (%) (D. immitis microfilariae; 30.0 µM, 120 h): 95% and 98% and 93%
- EC50 (D. immitis microfilariae; read-out: Anti-parasitic EC50): 17.6 µM
- IC50 (mammalian cells): 37.4 µM
